Usually IC50 stands for the concentration that inhibits the measured activity by half.

The results in this text go back to patent publication US20240317686A1, “RORyT MODULATOR, AND PREPARATION METHOD THEREFOR AND APPLICATION THEREOF” (SHANGHAI PHARMACEUTICALS HOLDING CO., LTD., priority 2020, published 2024).

This experiment addresses T1, RORγt (Homo sapiens, UniProt P51449).
T1 construct: Prepare 4×RORgt-LBD in 1× buffer
T1 sequence (P51449 269-508 limits assumed): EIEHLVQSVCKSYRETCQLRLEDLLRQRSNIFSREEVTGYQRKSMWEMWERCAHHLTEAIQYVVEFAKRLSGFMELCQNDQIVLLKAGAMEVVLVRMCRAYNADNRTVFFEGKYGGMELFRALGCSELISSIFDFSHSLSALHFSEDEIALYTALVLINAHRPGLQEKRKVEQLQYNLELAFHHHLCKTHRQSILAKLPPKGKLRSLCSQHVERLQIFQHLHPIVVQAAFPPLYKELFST
In words: Fluorescence resonance energy transfer (FRET) assay of inhibitory activity on RORγt. It is filed as biochemical. The note with it: RORgt-LBD GST with SRC peptide. How it is done:
Fluorescence resonance energy transfer (FRET) experiment was performed to assay the inhibitory activity of the compound of the present invention on RORγt.
1) Preparation of DMSO stock solutions of the compounds: All compounds were dissolved in DMSO to prepare 10 mM stock solutions.
2) Compound storage: After the compound was dissolved in DMSO, the solution can be stored in a desiccator at room temperature for three months. For long-term storage, the solution should be put in a −20° C. refrigerator.
3) Preparation of working solution: • a) Positive control compound AZD0284: Starting from 500 µM, the solution was diluted serially by 3-folds with DMSO to obtain a 10-concentration gradient, each concentration with 3 replicate wells. 2 wells were pipetted. The gradiently diluted compound was diluted in a reaction buffer to obtain a 4× working solution (starting from 40 μM, diluted gradiently by 3-folds) of the positive control compound. • b) Compounds to be tested: Starting from 500 μM, the solution was diluted serially by 3-folds with DMSO to obtain a 10-concentration gradient, each concentration with 3 replicate wells. 2 wells were pipetted. The gradiently diluted compound was diluted in a reaction buffer to obtain a 4× working solution ([…], diluted gradiently by 3-folds) of the compounds to be tested. • c) Prepare a 4× negative control (8% DMSO). • d) Centrifuge the plate at 1000 rpm for 1 min.
1) Prepare 4× serially diluted compounds in 1× buffer.
2) Add 5 μl of the 4× serially diluted compound (prepared in step 1) to a 384 assay plate (784075, Greiner).
3) Prepare 4×RORgt-LBD in 1× buffer.
4) Add 5 μl of the 4×RORgt-LBD (prepared in step 3) to the 384 assay plate (prepared in step 2).
5) Incubate the assay plate for 15 min at room temperature, protected from light.
6) Prepare a 2× mixture of SRC, anti-GST Eu and streptavidin-d2 in 1× […].
7) Add 10 μl of the 2× mixture (prepared in step 6) to the 384 assay plate (prepared in step 4).
8) Centrifuge the 384 assay plates at 1000 g for 1 min.
9) Incubate for 3 h at room temperature, protected from light.
10) Read the plate at wavelengths of 665 nm and 615 nm on an Envision 2104 plate reader.
Relative ratio (RR): Calculate the relative ratio (response value at 665 nm/response value at 615 nm-response value in blank background) of each well.
Inhibition rate %=[1−(fluorescence detection value of the compound−fluorescence detection average of the positive compound)/(fluorescence detection average of the negative control−fluorescence detection average of the positive compound)]×100
Calculate the IC50 and dose-response curve of the compound: The IC50 and dose-response curve of the compound were obtained via Graphpad 8.0 by calculating the inhibition rate of the compound and the log value of the compound concentration.

`CCS(=O)(=O)c1ccc(CC(=O)Nc2ccc(C(=O)C(F)(F)c3ccc(Cl)cc3)nc2)cc1` [Compound I-39, N-(6-(2-(4-chlorophenyl)-2,2-difluoroacetyl)pyridin-3-yl)-2-(4-(ethylsulfonyl)phenyl)acetamide] gave an IC50 of more than 1000 nM.

The compound `CCS(=O)(=O)c1ccc(CC(=O)Nc2ccc(C(=O)C(C)(C)c3cc(C#N)ccn3)nc2)cc1` [Compound I-40, N-(6-(2-(4-cyanopyridin-2-yl)-2-methylpropionyl)pyridin-3-yl)-2-(4-(ethylsulfonyl)phenyl)acetamide] gave an IC50 of 1 to 10 nM.

In turn, `CCS(=O)(=O)c1ccc(CC(=O)Nc2ccc(C(=O)C(C)(C)c3ncc(F)cc3F)nc2)cc1` [Compound I-41, N-[6-[2-(3,5-difluoro-2-pyridyl)-2-methyl-propionyl]-3-pyridyl]-2-(4-ethylsulfonylphenyl)acetamide] came in with a half-maximal inhibitory concentration (IC50) of 1 to 10 nM.

Take `CCn1cc(C(C)(C)C(=O)c2ccc(NC(=O)Cc3ccc(S(=O)(=O)CC)cc3)cn2)cn1` [Compound I-42, N-(6-(2-(1-ethyl-1H-pyrazol-4-yl)-2-methylpropionyl)pyridin-3-yl)-2-(4-(ethylsulfonyl)phenyl) acetamide]: the 50% inhibitory concentration (IC50) lay within 10 to 50 nM.

On to `[2H]C([2H])([2H])n1cc(C(C)(C)C(=O)c2ccc(NC(=O)Cc3ccc(S(=O)(=O)CC)cc3)cn2)cn1` [Compound I-43, 2-(4-(ethylsulfonyl)phenyl)-N-(6-(2-methyl-2-(1-(methyl-D3)-1H-pyrazol-4-yl)propionyl)pyridin-3-yl)acetamide], for which the IC50 lay in the range of 10 to 50 nM.

For the compound `CCS(=O)(=O)c1ccc(CC(=O)Nc2ccc(C(=O)C(C)(C)c3ncccc3F)nc2)cc1` [Compound I-44, 2-(4-(ethylsulfonyl)phenyl)-N-(6-(2-(3-fluoropyridin-2-yl)-2-methylpropionyl)pyridin-3-yl)acetamide], the IC50 lay within 1 to 10 nM.

In turn, `CCS(=O)(=O)c1ccc(CC(=O)Nc2ccc(C(=O)C3(c4ccccn4)CC3)nc2)cc1` [Compound I-45, 2-(4-(ethylsulfonyl)phenyl)-N-(6-(1-(pyridin-2-yl)cyclopropane-1-carbonyl)pyridin-3-yl)acetamide] returned an IC50 of 100 to 1000 nM.

With `CCS(=O)(=O)c1ccc(CC(=O)Nc2ccc(C(=O)C3(c4ccccn4)CCC3)nc2)cc1` [Compound I-46, 2-(4-(ethylsulfonyl)phenyl)-N-(6-(1-(pyridin-2-yl)cyclobutane-1-carbonyl)pyridin-3-yl)acetamide], the IC50 was 10 to 50 nM.

Take `CNS(=O)(=O)c1ccc(CC(=O)Nc2ccc(C(=O)C(C)(C)c3ccc(F)c(Cl)c3)nc2)cc1` [Compound I-47]: the IC50 lay within 1 to 10 nM.

`CCS(=O)(=O)c1ccc(CC(=O)Nc2ccc(C(=O)C(C)(C)c3ccc(C)nc3)nc2)cc1` [Compound I-48, 2-(4-(ethylsulfonyl)phenyl)-N-(6-(2-methyl-2-(6-methylpyridin-3-yl)propionyl)pyridin-3-yl)acetamide] registered an IC50 of 50 to 100 nM.

On to `CCS(=O)(=O)c1ccc(CC(=O)Nc2ccc(C(=O)C(C)(C)c3ccc(C(F)(F)F)nc3)nc2)cc1` [Compound I-50], for which the IC50 lay within 50 to 100 nM.

For the compound `CCS(=O)(=O)c1ccc(CC(=O)Nc2ccc(C(=O)C(C)(C)c3ccnc(C(F)(F)F)c3)nc2)cc1` [Compound I-52], the IC50 was in the range of 1 to 10 nM.

Take `CCS(=O)(=O)c1ccc(CC(=O)Nc2ccc(C(=O)C3(c4ccccn4)CC(F)(F)C3)nc2)cc1` [Compound I-54, N-(6-(3,3-difluoro-1-(pyridin-2-yl)cyclobutane-1-carbonyl)pyridin-3-yl)-2-(4-(ethylsulfonyl)phenyl)acetamide]: the IC50 was 1 to 10 nM.

Regarding `CCS(=O)(=O)c1ccc(CC(=O)Nc2ccc(C(=O)C(C)(C)c3cnc(C)nc3)nc2)cc1` [Compound I-55], the IC50 lay in the range of 100 to 1000 nM.

Compound `CCS(=O)(=O)c1ccc(CC(=O)Nc2ccc(C(=O)C(C)(C)c3nc(C)c(C)o3)nc2)cc1` [Compound I-56, N-(6-(2-(4,5-dimethyloxazol-2-yl)-2-methylpropionyl)pyridin-3-yl)-2-(4-(ethylsulfonyl)phenyl) acetamide] came in with an IC50 of 10 to 50 nM.

In turn, `CCS(=O)(=O)c1ccc(CC(=O)Nc2ccc(C(=O)C(C)(C)c3cccc(C)n3)nc2)cc1` [Compound I-57] registered an IC50 of 1 to 10 nM.

`CCS(=O)(=O)c1ccc(CC(=O)Nc2ccc(C(=O)C(C)(C)c3cc(Br)ccn3)nc2)cc1` [Compound I-58, N-(6-(2-(4-bromopyridin-2-yl)-2-methylpropionyl)pyridin-3-yl)-2-(4-(ethylsulfonyl)phenyl)acetamide] registered an IC50 of 1 to 10 nM.

`CCS(=O)(=O)c1ccc(CC(=O)Nc2ccc(C(=O)C(C)(C)c3ncc(C)cn3)nc2)cc1` [Compound I-59, 2-(4-(ethylsulfonyl)phenyl)-N-(6-(2-methyl-2-(5-methylpyrimidin-2-yl)propionyl)pyridin-3-yl) acetamide] returned an IC50 of 10 to 50 nM.

As for `CCS(=O)(=O)c1ccc(CC(=O)Nc2ccc(C(=O)C3(c4cnn(C)c4)CC3)nc2)cc1` [Compound I-60, 2-(4-(ethylsulfonyl)phenyl)-N-(6-(1-(1-methyl-1H-pyrazol-4-yl)cyclopropane-1-carbonyl)pyridin-3-yl)acetamide], the IC50 was 100 to 1000 nM.

Consider `CCS(=O)(=O)c1ccc(CC(=O)Nc2ccc(C(=O)C(C)(C)c3cccc(F)n3)nc2)cc1` [Compound I-61], for which the half-maximal inhibitory concentration (IC50) fell in the range of 1 to 10 nM.

For the compound `CCS(=O)(=O)c1ccc(CC(=O)Nc2ccc(C(=O)C(C)(C)c3nc(C)co3)nc2)cc1` [Compound I-62], the IC50 was 50 to 100 nM.

In turn, `CNS(=O)(=O)c1ccc(CC(=O)Nc2ccc(C(=O)C(C)(C)c3ccccn3)nc2)cc1` [Compound I-63, N-(6-(2-methyl-2-(pyridin-2-yl)propionyl)pyridin-3-yl)-2-(4-(N-methylsulfamoyl)phenyl)acetamide] showed a half-maximal inhibitory concentration (IC50) of 10 to 50 nM.

`CN(C)S(=O)(=O)c1ccc(CC(=O)Nc2ccc(C(=O)C(C)(C)c3ccccn3)nc2)cc1` [Compound I-64, 2-(4-(N,N-dimethylsulfamoyl)phenyl)-N-(6-(2-methyl-2-(pyridin-2-yl)propionyl)pyridin-3-yl)acetamide] came in with a concentration for half-maximal inhibition (IC50) of more than 1000 nM.

The compound `CCS(=O)(=O)c1ccc(CC(=O)Nc2ccc(C(=O)C(C)(C)c3cccc(C#N)n3)nc2)cc1` [Compound I-65] showed an IC50 of 1 to 10 nM.

Compound `CCS(=O)(=O)c1ccc(CC(=O)Nc2ccc(C(=O)C3(c4ccc(F)cc4)CC(F)(F)C3)nc2)cc1` [Compound I-66] came in with an IC50 of 1 to 10 nM.

As to `CN(C)S(=O)(=O)c1ccc(CC(=O)Nc2ccc(C(=O)C3(c4ccc(F)cc4)CC(F)(F)C3)nc2)cc1` [Compound I-67], the IC50 was in the range of 100 to 1000 nM.

As for `CCS(=O)(=O)c1ccc(CC(=O)Nc2ccc(C(=O)C3(c4ccc(F)cn4)CC3)nc2)cc1` [Compound I-68, 2-(4-(ethylsulfonyl)phenyl)-N-(6-(1-(5-fluoropyridin-2-yl)cyclopropane-1-carbonyl)pyridin-3-yl)acetamide], the IC50 fell in the range of 100 to 1000 nM.

For `CCC(C(=O)c1ccc(NC(=O)Cc2ccc(S(=O)(=O)CC)cc2)cn1)c1ccccn1` (centres unmarked) [Compound I-69], the IC50 lay within 10 to 50 nM.

The compound `CCS(=O)(=O)c1ccc(CC(=O)Nc2ccc(C(=O)C(C)(C)c3ccccn3)cn2)cc1` [Compound I-71, 2-(4-(ethylsulfonyl)phenyl)-N-(5-(2-methyl-2-(pyridin-2-yl)propionyl)pyridin-2-yl)acetamide] gave a concentration for half-maximal inhibition (IC50) of 50 to 100 nM.

`CCS(=O)(=O)c1ccc(CC(=O)Nc2ccc(C(=O)C(C)(C)c3cn(C)cn3)nc2)cc1` [Compound I-72, 2-(4-(ethylsulfonyl)phenyl)-N-(6-(2-methyl-2-(1-methyl-1H-imidazol-4-yl)propionyl)pyridin-3-yl)acetamide] displayed an IC50 of 50 to 100 nM.

`CCS(=O)(=O)c1ccc(CC(=O)Nc2ccc(C(=O)C(C)c3ccccn3)nc2)cc1` (centres unmarked) [Compound I-73, 2-(4-(ethylsulfonyl)phenyl)-N-(6-(2-(pyridin-2-yl)propanoyl)pyridin-3-yl)acetamide] yielded an IC50 of 10 to 50 nM.

In turn, `CCS(=O)(=O)c1ccc(CC(=O)Nc2ccc(C(=O)C(c3ccccn3)C(C)C)nc2)cc1` (centres unmarked) [Compound I-74] yielded an IC50 of 10 to 50 nM.
